Measurements published in ChEMBL document CHEMBL1201862, “PubChem BioAssay data set” (2004).
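Exposure lasted 48 hours, with cells grown in 96-well plates and compounds tested at five concentrations. GI50 = concentration required for 50% inhibition of growth.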 Active and inactive are the calls of the source. Rule as the data show it: active = GI50 up to about 1.1 µM and inactive = higher.

Columns and labels:
Assay in all cases: NCI-60 cell line screen, 48 h
DMS-273 = system: DMS-273
HOP-18 = system: HOP-18
KM-20L2 = system: KM-20L2
LXFL 529 = system: LXFL 529
SNB-78 = system: SNB-78
XF498 = system: XF498
RXF 631 = system: RXF 631
DU-145 = system: DU-145
T47D = system: T47D

Measured: GI50

CC(=O)Nc1ccc(/C=C(\NC(=O)c2ccccc2)C(=O)NNS(=O)(=O)c2ccc(C)cc2)cc1
inactive: DMS-273 18.2 µM | HOP-18 > 100 µM | KM-20L2 > 100 µM | LXFL 529 > 100 µM | SNB-78 > 100 µM | XF498 > 100 µM

O=C(Nc1cccc(O)c1)C(=O)C1C(=O)NC(=S)NC1=O
inactive: DMS-273 > 100 µM | HOP-18 > 100 µM | KM-20L2 > 100 µM | LXFL 529 > 100 µM | SNB-78 > 100 µM | XF498 > 100 µM

CCCCCCCCOCC(O)COC(=O)CCCCCCC (stereo unspecified)
inactive: DMS-273 44.6 µM | HOP-18 > 100 µM | KM-20L2 > 100 µM | LXFL 529 > 100 µM | RXF 631 > 100 µM

Nc1ccc(N)c2c1C(=O)c1ccccc1C2=O
inactive: DMS-273 16 µM | HOP-18 22 µM | KM-20L2 14.4 µM | LXFL 529 31.1 µM | RXF 631 20.4 µM | SNB-78 > 100 µM | XF498 > 100 µM

CC(C)(C)c1nc2c(o1)/C(=N\c1ccc(F)cc1)c1ccccc1C2=O
inactive: DMS-273 1.73 µM | DU-145 10.4 µM | HOP-18 15.2 µM | KM-20L2 17.1 µM | LXFL 529 4.4 µM | SNB-78 56 µM | T47D > 49.3 µM | XF498 1.71 µM

CCOc1ccccc1NC(=O)CCc1nnc(S)[nH]1
inactive: HOP-18 > 100 µM | LXFL 529 > 100 µM | RXF 631 > 100 µM | SNB-78 > 100 µM

Cc1cc(O)c(C(=O)CC2(O)C(=O)Nc3c(Cl)cc(Cl)cc32)c(=O)o1 (stereo unspecified)
inactive: DMS-273 41.7 µM | HOP-18 > 100 µM | KM-20L2 > 100 µM | LXFL 529 > 100 µM | RXF 631 > 100 µM | SNB-78 > 100 µM | XF498 > 100 µM

Nc1ncnc2c1ncn2C1C=C(CO)C(O)C1O (stereo unspecified)
inactive: DMS-273 2.64 µM | DU-145 5.69 µM | HOP-18 24.3 µM | KM-20L2 14.7 µM | LXFL 529 16.7 µM | RXF 631 12.6 µM | SNB-78 30.9 µM | T47D 1.64 µM | XF498 37.2 µM

O=c1c2cc([N+](=O)[O-])ccc2sc2ccsc12
inactive: HOP-18 > 100 µM | KM-20L2 > 100 µM | LXFL 529 69.3 µM | RXF 631 > 100 µM | SNB-78 > 100 µM | XF498 > 100 µM

CC1=C(C(=O)NCc2ccccc2)C(c2ccc(N(C)C)cc2)C(C(=O)NCc2ccccc2)=C(C)N1
inactive: DMS-273 > 100 µM | KM-20L2 > 100 µM | LXFL 529 > 100 µM | RXF 631 > 100 µM | SNB-78 > 100 µM | XF498 > 100 µM

COC(=O)CC(=O)OSc1ccccc1
inactive: DMS-273 22.7 µM | KM-20L2 20 µM | RXF 631 11.4 µM

COC(=O)[C@]1(c2ccc(N(C)C)cc2OC)C[C@@H]2CCCN(CCc3c1[nH]c1ccccc31)C2
inactive: DMS-273 20.5 µM | HOP-18 24.1 µM | KM-20L2 17.1 µM | SNB-78 31 µM | XF498 18.7 µM

O=C(c1ccco1)c1ccccc1C(=O)c1ccco1
inactive: DMS-273 > 100 µM | HOP-18 61.5 µM | KM-20L2 > 100 µM | LXFL 529 > 100 µM | RXF 631 > 100 µM | SNB-78 > 100 µM | XF498 > 100 µM

Nc1ccc(-c2nc3ccccc3s2)cc1
inactive: DU-145 16.4 µM | HOP-18 86.9 µM | KM-20L2 37.8 µM | LXFL 529 17.5 µM | RXF 631 19.7 µM | SNB-78 21.6 µM | T47D 20.7 µM
